In the supplement of paper PMC4449167:
± gives the standard deviation of the averaged measurements.

Tested on: WB-F344
Assay: gap junctional intercellular communication (dye spread) relative to vehicle control (fraction of control); higher = more gap junction communication (less inhibition)
Method: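 Confluent WB-F344 rat liver epithelial cells were pretreated with vehicle, D609 (PC-PLC inhibitor, 50 µM, 20 min), U0126 (MEK1/2 inhibitor, 20 µM, 30 min) or resveratrol (100 µM, 15 min), then exposed to a GJIC-dysregulating chemical at the listed dose and time. GJIC was measured by scalpel loading-dye transfer with Lucifer Yellow (3 min), and the dye-spread area was quantified in ImageJ as a fraction of the vehicle control (FOC). Individual values come from at least 3 independent experiments.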

[1] = pretreatment: D609+GJIC dysreg.
[2] = pretreatment: U0126+GJIC dysreg.

Row | SMILES | gap junctional intercellular communication [1] | gap junctional intercellular communication (pretreatment: GJIC dysreg.) | gap junctional intercellular communication (pretreatment: RES+GJIC dysreg.) | gap junctional intercellular communication [2] | gap junctional intercellular communication (dose note: (30 uM), pretreatment: D609+GJIC dysreg.) | gap junctional intercellular communication (dose note: (30 uM), pretreatment: GJIC dysreg.) | gap junctional intercellular communication (dose note: (30 uM), pretreatment: RES+GJIC dysreg.) | gap junctional intercellular communication (dose note: (30 uM), pretreatment: U0126+GJIC dysreg.) | gap junctional intercellular communication (dose note: (50 uM), pretreatment: D609+GJIC dysreg.) | gap junctional intercellular communication (dose note: (50 uM), pretreatment: GJIC dysreg.) | gap junctional intercellular communication (dose note: (50 uM), pretreatment: RES+GJIC dysreg.) | gap junctional intercellular communication (dose note: (50 uM), pretreatment: U0126+GJIC dysreg.)
1 | O=C(O)C(F)(F)C(F)(F)C(F)(F)C(F)(F)C(F)(F)C(F)(F)C(F)(F)C(F)(F)C(F)(F)F [Perfluorodecanoic acid] (compound abbreviation / co-treatment: PFDA, exposure (dose, time): 50 µM, 20 min) | 0.46 ± 0.12 | 0.22 ± 0.033 | 0.225 ± 0.023 | 0.239 ± 0.046 | – | – | – | – | – | – | – | –
2 | O=S(=O)(O)C(F)(F)C(F)(F)C(F)(F)C(F)(F)C(F)(F)C(F)(F)C(F)(F)C(F)(F)F [Perfluorooctanesulfonic acid] (compound abbreviation / co-treatment: PFOSA, exposure (dose, time): 40 µM, 20 min) | 0.287 ± 0.045 | 0.279 ± 0.041 | 0.329 ± 0.097 | 0.289 ± 0.037 | – | – | – | – | – | – | – | –
3 | O=C(O)C(F)(F)C(F)(F)C(F)(F)C(F)(F)C(F)(F)C(F)(F)C(F)(F)F [Perfluorooctanoic acid] (compound abbreviation / co-treatment: PFOA, exposure (dose, time): 80 µM, 10 min) | 0.661 ± 0.15 | 0.24 ± 0.054 | 0.743 ± 0.12 | 0.44 ± 0.12 | – | – | – | – | – | – | – | –
4 | c1cc2ccc3cccc4ccc(c1)c2c34 [Pyrene] (compound abbreviation / co-treatment: Pyr, exposure (dose, time): 70 µM, 10 min) | 0.844 ± 0.084 | 0.375 ± 0.078 | 0.802 ± 0.099 | 0.376 ± 0.061 | – | – | – | – | – | – | – | –
5 | CC(C)C[C@H](NC(=O)[C@H](CC(C)C)NC(=O)[C@H](Cc1ccccc1)NC(=O)[C@@H](N)CO)C(=O)N[C@@H](CCCN=C(N)N)C(=O)N[C@@H](CC(N)=O)C(=O)O [Thrombin receptor activator peptide-6] (compound abbreviation / co-treatment: TRAP-6, exposure (dose, time): 50 µM, 30 min) | 0.588 ± 0.089 | 0.4 ± 0.058 | 0.967 ± 0.04 | 1.05 ± 0.036 | – | – | – | – | – | – | – | –
6 | CC1(C)[C@@H](O)CC[C@]2(C)[C@H]3C(=O)C=C4[C@@H]5C[C@@](C)(C(=O)O)CC[C@]5(C)CC[C@@]4(C)[C@]3(C)CC[C@@H]12 [ß-Glycyrrhetinic acid] (compound abbreviation / co-treatment: BGA, exposure (dose, time): 30-50 µM, 15 min) | – | – | – | – | 0.242 ± 0.036 | 0.353 ± 0.03 | 0.302 ± 0.023 | 0.344 ± 0.053 | 0.225 ± 0.034 | 0.242 ± 0.042 | 0.243 ± 0.038 | 0.269 ± 0.028
